Data published in patent US9682925B2, “Cyclopropaneamine compound” (TAKEDA PHARMACEUTICAL COMPANY LIMITED, priority 2011, dated 2017).
Counter-ions that a name gives are not always drawn.

Experiments:
[1] = test system: HEL92.1.7 acute myeloid leukemia cells; test: Tumor growth suppressive effect test using HEL92.1.7 acute myeloid leukemia cell; type: in vivo, SCID mice; conditions: change rate in tumor volume, vehicle-treated group = 100%, 30 mg/kg orally once per day
Description: Tumor Growth Suppressive Effect Test Using HEL92.1.7 Acute Myeloid Leukemia Cell
6-Week-old SCID mice were subcutaneously transplanted with 5×10^6 cells/100 μl of HEL92.1.7 acute myeloid leukemia cells, and the mice were grouped according to the body weight and tumor volume after 15 to 17 days. Vehicle (0.5% methylcellulose) or compound A, compound B or compound C was administered orally to mice (5 mice per group). The administration was once per day and performed continuously during the dosing period. Setting the change in tumor volume of the vehicle-treated group as 100%, the change rate in tumor volume of the compound-treated group (T/C %) was calculated. The tumor volume was determined by measuring the long diameter m and short diameter of the tumor with a vernier caliper, and calculating by the following calculation formula: (long diameter)×(short diameter)×(short diameter)/2.

[2] = target: T1, MAO-B (Homo sapiens, UniProt P27338); test: Measurement of MAO-B inhibitory activity (MAO-Glo Assay); type: biochemical
T1 construct: purchased Sigma-Aldrich Co. LLC
T1 sequence (P27338 1-520): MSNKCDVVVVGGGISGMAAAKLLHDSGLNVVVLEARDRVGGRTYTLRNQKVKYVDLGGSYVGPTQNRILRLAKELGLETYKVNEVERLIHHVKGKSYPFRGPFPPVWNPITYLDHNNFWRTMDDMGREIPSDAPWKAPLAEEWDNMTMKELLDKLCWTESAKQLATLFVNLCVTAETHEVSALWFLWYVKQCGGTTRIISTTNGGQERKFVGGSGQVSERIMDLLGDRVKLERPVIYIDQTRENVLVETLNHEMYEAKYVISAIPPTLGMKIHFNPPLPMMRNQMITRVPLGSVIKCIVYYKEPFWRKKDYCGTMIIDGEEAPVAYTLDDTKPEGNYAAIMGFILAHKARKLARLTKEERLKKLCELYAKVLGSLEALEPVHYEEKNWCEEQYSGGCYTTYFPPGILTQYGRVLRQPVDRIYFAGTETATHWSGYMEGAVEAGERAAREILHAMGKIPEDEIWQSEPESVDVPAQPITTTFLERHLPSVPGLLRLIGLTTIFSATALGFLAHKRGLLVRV
Outline: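 Percent inhibition was calculated from luciferin-based luminescence, corrected with a blank lacking enzyme and a control lacking compound. The reaction ran 60 min at room temperature after adding MAO substrate (16 µM as added). This followed a 10 min compound–enzyme preincubation in HEPES pH 7.5 buffer.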

[3] = target: T2, MAO-A (Homo sapiens, UniProt P21397); test: Measurement of MAO-A inhibitory activity (MAO-Glo Assay); type: biochemical
T2 construct: purchased Sigma-Aldrich Co. LLC
T2 sequence (P21397 1-527): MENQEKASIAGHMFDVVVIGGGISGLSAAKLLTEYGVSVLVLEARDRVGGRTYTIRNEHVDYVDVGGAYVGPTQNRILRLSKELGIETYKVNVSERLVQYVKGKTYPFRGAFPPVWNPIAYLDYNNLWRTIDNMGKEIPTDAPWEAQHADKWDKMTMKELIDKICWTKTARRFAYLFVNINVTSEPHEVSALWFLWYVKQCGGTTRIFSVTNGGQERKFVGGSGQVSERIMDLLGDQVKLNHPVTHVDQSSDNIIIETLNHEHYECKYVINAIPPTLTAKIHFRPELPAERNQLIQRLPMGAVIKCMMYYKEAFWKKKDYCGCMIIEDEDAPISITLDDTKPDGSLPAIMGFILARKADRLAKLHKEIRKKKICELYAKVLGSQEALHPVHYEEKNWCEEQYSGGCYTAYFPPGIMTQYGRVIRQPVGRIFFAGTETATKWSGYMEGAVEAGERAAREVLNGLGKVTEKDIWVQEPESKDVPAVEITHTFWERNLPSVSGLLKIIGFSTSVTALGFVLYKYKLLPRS
Outline: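 Luminescent MAO-Glo read-out: % inhibition computed from counts relative to enzyme-only control and enzyme-free blank. Compound and 400 ng MAO-A in HEPES pH 7.5 with 5% glycerol stood 10 min at room temperature before MAO substrate (160 μM stock) started a 60 min reaction.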

[4] = target: T3, human LSD1(171-852) (Homo sapiens, UniProt O60341); test: Measurement of LSD1 inhibitory activity (time-resolved fluorescence, biotin-histone H3 mono methylated K4 peptide); type: biochemical; conditions: read-out: LSD1 IC50 value
T3 construct: to give hLSD1(171-852) purified product; made in house; host or cells: Escherichia coli C43(DE3) pLysS

Row | IC50 [2] | IC50 [3] | IC50 [4] | Structure (SMILES) | T/C (%) ([1]; dosing period 14 days) | T/C (%) ([1]; dosing period 7 days)
1 | > 10 µM | > 10 µM | < 100 nM | O=C(Nc1ccc([C@@H]2C[C@H]2NCC2CC2)cc1)c1cn[nH]c1 (relative stereo) [Example 79, N-(4-{trans-2-[(cyclopropylmethyl)amino]cyclopropyl}phenyl)-1H-pyrazole-4-carboxamide hydrochloride] | 46.42% | –
2 | > 10 µM | > 10 µM | < 100 nM | CN1CCC(N[C@@H]2C[C@H]2c2ccc(NC(=O)c3cccc(C(F)(F)F)c3)cc2)CC1 (relative stereo) [Example 76, N-(4-{trans-2-[(1-methylpiperidin-4-yl)amino]cyclopropyl}phenyl)-3-(trifluoromethyl)benzamide dihydrochloride] | – | −8.08%
3 | > 10 µM | > 10 µM | < 100 nM | Cn1ncc(C(=O)Nc2ccc([C@@H]3C[C@H]3NCC3CC3)cc2)c1C(F)(F)F (relative stereo) [Example 159, N-(4-{trans-2-[(cyclopropylmethyl)amino]cyclopropyl}phenyl)-1-methyl-5-(trifluoromethyl)-1H-pyrazole-4-carboxamide hydrochloride] | – | –
4 | > 10 µM | > 10 µM | < 100 nM | CS(=O)(=O)Nc1cccc(C(=O)Nc2ccc([C@@H]3C[C@H]3NCC3CC3)cc2)c1 (relative stereo) [Example 136, N-(4-{trans-2-[(cyclopropylmethyl)amino]cyclopropyl}phenyl)-3-[(methylsulfonyl)amino]benzamide hydrochloride] | – | –
5 | 5.1 µM | 5.8 µM | 110 nM | COc1cccc(CN[C@@H]2C[C@H]2c2ccc(NC(=O)c3ccc(-c4ccccc4)cc3)cc2)c1 (relative stereo) [Example 41, N-(4-{trans-2-[(3-methoxybenzyl)-amino]cyclo-propyl}phenyl)-biphenyl-4-carboxamide] | – | –

Row | Structure (SMILES) | IC50 [2] | IC50 [3] | IC50 [4] | T/C (%) ([1]; dosing period 14 days) | T/C (%) ([1]; dosing period 7 days)
6 | O=C(Nc1ccc([C@@H]2C[C@H]2NCC2CC2)cc1)c1ccc(-c2ccccc2)cc1 (single isomer, unassigned) [Example 59, N-(4-{trans-2-[(cyclopropylmethyl)amino]cyclopropyl}phenyl)biphenyl-4-carboxamide hydrochloride] | > 10 µM | 7.1 µM | – | 12.54% | –
